Test results as given in patent US20250011725A1, “TISSUE-[…] CERAMIC TEMPLATE AND USES THEREOF” (Osteogene Bio Inc., priority 2023, published 2025).

Experiments:
Format in all cases: cell-based
[1] = tested on: co-cultured osteoblast precursor MC3T3 and osteosarcoma cells; assay: survival index of co-cultured cells after doxorubicin, 2D static culture on culture plate without PCT; conditions: 0.5 mg/ml doxorubicin
Description: (§1) FIG. 37 depicts comparison of survival index of co-cultured cells onto a culture plate for 2D static culture without a porous ceramic template (PCT), 3D static culture using a PCT, and 3D dynamic culture using a PCT after treated with doxorubicin (DOX: therapeutic drug) for designated time. In this example, osteoblast precursor MC3T3 with 2.5×10^5 cell population and osteosarcoma with 1×10^5 cell population are deployed onto a 12 well culture plate for the 2D static culture. 2.5×10^5 MC3T3 cell and 1×10^5 osteosarcoma are also seeded onto a PCT that is placed in a 12 well culture plate for the 3D static culture. For the 3D dynamic culture, 2.5×10^5 MC3T3 cell and 1×10^5 osteosarcoma were seeded onto a PCT and held for two days under static culture condition, then relocated into a culture column and subjected to dynamic culture with doxorubicin (therapeutic agent) using a peristaltic perfusion pump. […] In this regard, the 3D dynamic culture system is considered an effective alternative method of mimicking in vivo cancer model for performing a therapeutic agent test and/or screening.

[2] = tested on: co-cultured osteoblast precursor MC3T3 and osteosarcoma cells; assay: survival index of co-cultured cells after doxorubicin, 3D static culture using a PCT; conditions: 3D static culture on PCT, 0.5 mg/ml doxorubicin
Description: as §1

[3] = tested on: co-cultured osteoblast precursor MC3T3 and osteosarcoma cells; assay: survival index of co-cultured cells after doxorubicin, 3D dynamic culture using a PCT (perfusion bioreactor)
Description: FIG. 33 depicts a bioreactor system suitable for performing a therapeutic agent treatment test according to embodiments of the present disclosure. Reference numeral 902 represents a co-cultured 3D cancer model platform 902 including a PCT 101 (such as the one resulting from the co-culturing discussed above in connection with FIGS. 32A and 32B). The 3D cancer model platform 902 is inserted into a culture column 903 for dynamic therapeutic agent treatment. The culture column 903 is connected with a medium vessel 904 that is filled with a medium in which a therapeutic agent 901 is dissolved. Afterwards, a dynamic therapeutic agent treatment is employed for up to, but not limited to, about seven days. In an exemplary embodiment, the therapeutic agent 901 includes Doxorubicin with a concentration of about 0.5 mg/ml. However, the present disclosure is suitable for cancer treatment with various therapeutic agents including but not limited to Cisplatin, Methotrexate, Ifosfamide, Actinomycin D, Bleomycin, Vincristine, Cyclophosphamide, Paclitaxel, Carboplatin, or a combination of two more of the foregoing agents. In an exemplary embodiment, a flow rate of the therapeutic agent 901 medium into the culture column 903 is about 5 ml/min for about five minutes per day. […]

SMILES: COc1cccc2c1C(=O)c1c(O)c3c(c(O)c1C2=O)C[C@@](O)(C(=O)CO)C[C@@H]3O[C@H]1C[C@H](N)[C@H](O)[C@H](C)O1 [doxorubicin]
- survival index compared to control [1]: significant reduction
- survival index compared to control [2]: significant reduction
- reduction of survival index compared to control ([3]; 3D dynamic culture on PCT, 0.5 mg/ml doxorubicin, 5 ml/min flow rate for five minutes per day, three days): not significant
- cell survival index, 3D dynamic culture in comparison with 3D static culture ([3]; after doxorubicin treatment): significantly higher
